Test results as given in publication PMC4841036, “Synthesis and antimicrobial evaluation of two peptide LyeTx I derivatives modified with the chelating agent HYNIC for radiolabeling with technetium-99m” (The Journal of Venomous Animals and Toxins Including …, 2016).
Where no end group is shown, it is not given here.

Tests used:
[1] = tested on: S. aureus (ATCC® 6538); assay: Microdilution test, MIC in TSB; assay type: cell-based, Staphylococcus aureus; conditions: microdilution (CLSI) in TSB, 37 °C for 24 h, MIC = reduction of 100 % in bacterial growth, median (n = 3), each in duplicate, NI = no inhibition
Procedure: (§1) The maintenance of the antimicrobial activity after peptide LyeTx I modifications with HYNIC was evaluated by microdilution test, according to the Clinical and Laboratory Standards Institute. Bacterial strains of reference, S. aureus (ATCC® 6538) and E. coli (ATCC® 10536), were grown on tryptic soy agar at 37 °C for 18 h. Then, 0.5 McFarland scale bacterial suspensions (10^8 CFU^.mL^−1) were prepared on tryptic soy broth (TSB). The readouts were carried by determination of minimum inhibitory concentration (MIC), defined as a reduction of 100 % in bacterial growth post-incubation with the peptide LyeTx I derivatives at 37 °C for 24 h. LyeTx I obtained by chemical synthesis and without the coupled chelating agent was used as treatment control. Only TSB (no bacterial suspension and no peptide) was used as negative control. TSB plus bacterial suspension (no peptide) were used as positive control. MIC was expressed as median (n = 3). Each replicate was performed with a different bacterial colony, in duplicate.

[2] = tested on: E. coli (ATCC® 10536); assay: Microdilution test, MIC in TSB; assay type: cell-based, Escherichia coli; conditions: microdilution (CLSI) in TSB, 37 °C for 24 h, MIC = reduction of 100 % in bacterial growth, median (n = 3), each in duplicate, NI = no inhibition
Procedure: as §1

[3] = tested on: E. coli; conditions: different assay conditions and other bacterial strains; cited from earlier work
Text: (§2) However, different assay conditions and other bacterial strains were employed, which can explain the slight differences in the MIC obtained in this study. […] On the other hand, the peptide HYNIC-LyeTx I derivative (N- ...

[4] = tested on: S. aureus; conditions: different assay conditions and other bacterial strains; cited from earlier work
Text: as §2

Substance: IWLTALKFLGKNLGKHLAKQQLAKL-NH2 [LyeTx I]
- Minimum inhibitory concentration (MIC) [1]: 5.52 μmol^.L^−1
- Minimum inhibitory concentration (MIC) [2]: 5.52 μmol^.L^−1
- MIC [3]: 7.81 μmol^.L^−1
- MIC [4]: 3.79 μmol^.L^−1
